The text below walks through data of US20140041062A1, “GENETICALLY ENGINEERED MOUSE MODEL FOR AUTISM SPECTRUM DISORDER HAVING DELETION OF SHANK2 GENE AND USE THEREOF” (Industry-Academic Cooperation Foundation, Yonsei University, priority 2012, published 2014).

“Also recorded” adds a separate entry of the source.

Assay [1] has as its system Shank2−/− mice. Put plainly: Repetitive behaviors (jumping) in home cage. It counts as in vivo, mouse. As to conditions: CDPPB i.p. The protocol:
Mice in their home cages with fresh bedding were used to measure times spent in repetitive behaviors including jumping, upright scrabbling, grooming, and digging during 10 min. Jumping was defined as the behavior of a mouse where it rears on it hind legs at the corner of the cage, or along the side walls, and jumps so that the two hind legs are simultaneously off the ground. Upright scrabbling was defined as the behavior of a mouse where it rears on it hind legs at the corner of the cage, or along the side walls, and tries to climb up against the wall with the two hind legs alternatively or coordinately touching the ground. Grooming behavior was defined as stroking or scratching of face, head, or body with the two forelimbs, or licking body parts. Digging behavior was defined as the behavior of a mouse where it coordinately uses two fore legs or hind legs to dig out or displace bedding materials.
(§1) CDPPB (Ascent scientific) was dissolved in DMSO and polyethylene glycol 400 (DMSO:PEG 400=1:9) to a final concentration of 6 g/l. Wild-type and Shank2^−/− mice received intraperitoneal injection of CDPPB (10 or 3 mg/kg), or the same volume of DSMO-PEG400 mixture, 30 min before three-chamber or other behavioral assays and 40 min before brain sample preparation for immunoblot analyses. D-cycloserine (Ascent Scientific) was dissolved in saline to final concentration of 12 g/l. […]

Assay [2] deals with Shank2−/− mice. The assay can be described thus: Pup retrieval assay. It counts as in vivo, mouse. As to conditions: CDPPB i.p. On the procedure: Virgin female mice were isolated for four days before pup retrieval assays. Three normal pups (1-d old; C57BL/6N) were placed at three different corners of a home cage of a test female mouse (wild-type or Shank2^−/−), and the female mouse was allowed to retrieve the pups for 10 min. Efficiency of pup retrieval was measured by the time taken to retrieve the first, second, and third pups.
(§2) CDPPB (Ascent scientific) was dissolved in DMSO and polyethylene glycol 400 (DMSO:PEG 400=1:9) to a final concentration of 6 g/l. Wild-type and Shank2^−/− mice received intraperitoneal injection of CDPPB (10 or 3 mg/kg), or the same volume of DSMO-PEG400 mixture, 30 min before three-chamber or other behavioral assays and 40 min before brain sample preparation for immunoblot analyses. D-cycloserine (Ascent Scientific) was dissolved in saline to final concentration of 12 g/l. Wild-type and Shank2^−/− mice received intraperitoneal injection of D-cycloserine (20 mg/kg), or the same volume of saline, 30 min before three-chamber assays.

Assay [3] concerns Shank2−/− mice. Put plainly: Anxiety-like behavior (elevated plus-maze, light-dark test). It counts as in vivo, mouse. As to conditions: CDPPB i.p. On the procedure: The elevated plus-maze consisted of two open arms, two closed arms, and a center area, elevated to a height of 50 cm above the floor. Mice were placed in the center area and allowed to explore the space for 8 min.
The apparatus for light-dark test consisted of light (˜600 lx) and dark (˜5 lx) chambers adhered to each other. An entrance enabled mice to freely move across the light and dark chambers. The size of light chamber was 20×30×20 cm, and that of dark chamber was 20×13×20 cm. Mice were introduced to the center of the light chamber with their heads pointing towards the opposite side of the dark chamber, and allowed to explore the apparatus freely for 10 min. The latency to enter the dark chamber, the time spent in dark and light chambers, and the number of transitions were measured. Transition was defined as the translocation of all four feet of a mouse from one to another chamber.
as §1

Assay [4] has as its system Shank2−/− mice. Put plainly: Three-chamber social interaction assay. Format: in vivo, mouse. The protocol:
The three-chamber social interaction assay consisted of three phases. In the first phase, a wild-type or Shank2^−/− mouse was placed in the three-chambered apparatus with two small containers in the left or right (not center) chamber, and was allowed to explore the environment freely for 10 min for habituation. After 10 min, the wild-type or Shank2^−/− mouse was gently guided to the center chamber, and the two entrances to the center chamber were blocked while an inaminate object (Object) and a stranger mouse (Stranger 1) were placed in the two containers. Then, the two entrances were opened to allow the mouse in the center to explore the new environment freely for 10 min. In the third phase, the test mouse was gently guided to the center chamber again, with the blockade of the entrances. The Object was replaced with Stranger 2, followed by exploration of the Stranger 1 or 2 by the test mouse for 10 min. Exploration was defined as each instance in which wild-type or Shank2^−/− mouse tries to sniff Object/Stranger, or orients its nose towards and come close to Object/Stranger. Time spent in each chamber was measured by Ethovision 3.1 program (Noldus). Individual movement tracks were analyzed by Ethovision and modified by ImageJ to generate heat maps. In addition to time spent in chamber or in exploration, the present inventors used the preference index, which represents a difference in percent exploration time over the targets (Wang, X. et al. Hum Mol Genet 20, 3093-108 (2011)).
as §2

Assay [5] relates to NMDAR. Put plainly: NMDA/AMPA ratio at hippocampal SC-CA1 synapses of Shank2−/− slices. Format: cell-based, mouse. As to conditions: for NMDA/AMPA ratio: Shank2−/− SC-CA1 synapses / slices; for NMDAR function: Shank2−/− mice, figure legend. An excerpt: Thus, the present inventors measured the NMDA/AMPA ratio at Shank2^−/− SC-CA1 synapses. Indeed, the NMDA/AMPA ratio was reduced relative to wild-type synapses (FIG. 2e).
Reduced NMDAR function and associated signaling may contribute to autism spectrum disorder (ASD)-like behaviors in Shank2^−/− mice.
(§3) Consistent with previous findings, CDPPB also normalized the NMDA/AMPA ratio in Shank2^−/− slices (FIG. 4a). […] The smaller extents of signaling deficits in older mice (8 weeks) relative to younger mice (3-4 weeks) may reflect age-dependent reductions in NMDAR-mediated currents, and/or compensatory changes in NMDAR signaling.

Assay [6] deals with Shank3 knockdown. As to conditions: caused by Shank3 knockdown; cited from earlier work.
Assay [7] deals with SC-CA1 synapses. The assay can be described thus: Synaptic plasticity (LTP, LTD) and basal transmission at SC-CA1 synapses of Shank2−/− mice. It counts as cell-based, mouse. On the procedure:
Next, the present inventors measured synaptic transmission at hippocampal Schaffer collaterals-CA1 pyramidal (SC-CA1) synapses. Basal excitatory transmission such as input-output and paired-pulse ratio was unchanged in Shank2^−/− mice (FIGS. 2a and 2b). In addition, spontaneous transmission and membrane excitability were normal in mutant animals. When synaptic plasticity was tested, long-term potentiation (LTP) induced by high frequency stimulation or theta-burst stimulation were severely impaired in Shank2^−/− mice (FIG. 2c). Long-term depression (LTD) induced by low-frequency stimulation was completely abolished also in Shank2^−/− mice (FIG. 2d). Because LTD induced by low-frequency stimulation activates both NMDA and metabotropic glutamate receptors (NMDARs and mGluRs), the present inventors isolated mGluR-LTD by bath-applying DHPG, an agonist of mGluR5, but found no difference between genotypes.
as §3

For assay [8], the system named is LTP and LTD. As to conditions: cited from earlier work.
In assay [9] the test system is NMDAR signaling. Put plainly: Immunoblot analysis of NMDAR signaling in Shank2−/− whole brains and synaptosomes after CDPPB treatment. It counts as in vivo, mouse. As to conditions: CDPPB i.p. 40 min before brain sample preparation. On the procedure:
For whole brain homogenates, mouse brains (3-4 wks) were briefly homogenized in 3 volumes of ice-cold homogenization buffer (0.32 M sucrose, 10 mM HEPES pH7.4, 2 mM EDTA, protease inhibitors, phosphatase inhibitors). Protein concentrations were measured by the Bradford assay. The relative amount of […]α-tubulin was used as a loading control. Synaptosomal fractions were prepared (Blackstone, C. D. et al., J Neurochem 58, 1118-26 (1992)).
as §2
Shank2 deletion may also affect NMDAR-associated signaling that it critically regulates various synaptic events including LTP and LTD (Zhu, J. J. et al. Cell 110, 443-55 (2002); Shepherd, J. D. & Huganir, R. L. Annu Rev Cell Dev Biol 23, 613-43 (2007)). […]
In general terms: A western blot detects proteins with antibodies after separation by electrophoresis.

For assay [10], the system named is Shank2−/− mice. The assay can be described thus: Open field assay (hyperactivity). Format: in vivo, mouse. As to conditions: CDPPB i.p. The protocol: The size of the open field box was 40×40×40 cm, and the center zone line was 10 cm apart from the edge. Mice were placed in the center of chamber in the beginning of assay, and mouse movements were recorded with a video camera for 60 min, and analyzed by Ethovision 3.1 program (Noldus).
as §2

Assay [11] relates to autism. As to conditions: cited from earlier work.
Assay [12] has as its system neuroligin-1-deficient mice. As to conditions: neuroligin-1-deficient mice with reduced NMDA/AMPA ratio; cited from earlier work.

Turning to `N#Cc1cccc(C(=O)Nc2cc(-c3ccccc3)nn2-c2ccccc2)c1` [CDPPB], the repeated jumping result in assay [1] was “did not rescue”. Also, in assay [2], the impaired pup retrieval result is on record as “did not rescue”. Also, the anxiety-like behaviors result in [3] is reported as “did not rescue”. The social interaction result in assay [4] (CDPPB 10 mg/kg i.p. 30 min before assay) is recorded as “substantially improves; also recorded: substantial recoveries”. Further, the social novelty recognition result in assay [4] (CDPPB i.p.) was “no effect”. In assay [4] (lower-dose CDPPB (3 mg/kg i.p.)), the “social interaction, lower-dose” value is on record as “did not rescue”. Besides, in [5], the NMDA/AMPA ratio result was “normalized” and the NMDAR function entry was “normalizes”. In assay [6], the “reduced ERK phosphorylation” value was “restores” and the reduced excitatory transmission entry is “restores”. For the same molecule, in assay [7], the basal synaptic transmission result is reported as “without affecting”, the “impaired LTD at SC-CA1 synapses” value is given as “restored” and the “impaired LTP at SC-CA1 synapses” value is “restored”. Besides, in assay [8], the “LTP and LTD” value was “enhance”; the spatial learning result is “enhance”. In addition, the “NMDAR signaling in synaptosomes” value in assay [9] (Shank2−/− synaptosomes) is “fully normalized”. Besides, the “NMDAR signaling in whole brains” value in assay [9] (Shank2−/− whole brains) is reported as “fully normalized”. Besides, the hyperactivity result in [10] is listed as “did not rescue”.

Regarding GLYX-13, the “therapeutic effect on autism” value in assay [11] is “showed a therapeutic effect”.

For the molecule `O=C(Nc1cc(-c2ccccc2)nn1-c1ccccc1)c1ccc([N+](=O)[O-])cc1` [VU-29], in [8], the “LTP and LTD” value is recorded as “enhance”; the spatial learning result was “enhance”.

With `N[C@@H]1CONC1=O` [D-cycloserine], the social interaction result in assay [4] (D-cycloserine 20 mg/kg i.p. 30 min before assay) is recorded as “improved”. Besides, in assay [5], the NMDA/AMPA ratio result is recorded as “fully recovered” and the NMDAR function result is listed as “normalizes”. For the same molecule, the repetitive grooming entry in assay [12] is “rescue”.
